Values of other authors in patent US20060120971A1, “Agents and methods for administration to the central nervous system” (SIGNUM PHARMACEUTICALS, INC., priority 2004, published 2006).

Molecular target: T1, carnitine palmitoyltransferase-1 (CPT1) (Rattus norvegicus, UniProt P32198)
T1 construct: decrease levels of CPT1 activity and increase the levels of LC-CoAs in the hypothalamus of healthy rats; host or cells: endogenous enzyme in brain/hypothalamus of conscious Sprague-Dawley rats (in vivo, ICV infusion)
T1 sequence (P32198 1-773): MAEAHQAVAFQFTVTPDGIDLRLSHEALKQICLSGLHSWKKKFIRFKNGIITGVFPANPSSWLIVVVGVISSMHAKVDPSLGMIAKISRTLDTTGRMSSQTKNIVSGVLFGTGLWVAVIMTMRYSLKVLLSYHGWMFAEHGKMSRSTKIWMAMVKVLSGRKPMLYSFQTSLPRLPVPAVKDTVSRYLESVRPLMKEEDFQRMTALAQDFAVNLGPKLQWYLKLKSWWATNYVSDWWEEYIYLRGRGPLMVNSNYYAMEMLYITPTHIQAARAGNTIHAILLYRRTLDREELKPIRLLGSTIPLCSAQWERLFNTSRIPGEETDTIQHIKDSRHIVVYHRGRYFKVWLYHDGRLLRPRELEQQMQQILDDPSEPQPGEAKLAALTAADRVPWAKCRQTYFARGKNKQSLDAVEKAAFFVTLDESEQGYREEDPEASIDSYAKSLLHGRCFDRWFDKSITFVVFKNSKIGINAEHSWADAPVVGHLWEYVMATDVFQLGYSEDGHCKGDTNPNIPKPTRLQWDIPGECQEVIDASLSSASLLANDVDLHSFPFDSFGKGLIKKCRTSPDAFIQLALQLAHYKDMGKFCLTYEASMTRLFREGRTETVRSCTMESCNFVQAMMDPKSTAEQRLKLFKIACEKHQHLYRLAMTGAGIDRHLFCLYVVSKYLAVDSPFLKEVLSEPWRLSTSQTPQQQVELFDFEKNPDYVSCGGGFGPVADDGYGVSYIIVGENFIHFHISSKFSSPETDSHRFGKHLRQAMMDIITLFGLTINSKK

[1] = healthy conscious Sprague-Dawley rats, continuous ICV infusion into third cerebral ventricle

CPT1 activity (brain of healthy rats, ICV infusion): effectively decreasing
endogenous glucose production [1]: reduced
food intake [1]: diminished
hypothalamic concentrations of LC-CoA (hypothalamus of healthy rats, ICV infusion): substantially increasing
Compound: CCCCCCCCCCCCCCNC(=O)N[C@H](CC(=O)[O-])C[N+](C)(C)C [ST1326, R-4-trimethylammonium-3-(tetradecylcarbamoyl)-aminobutyrate]
